Each structure is given as a SMILES string.

These results are taken from patent US20240132464A1, “HETEROCYCLIC COMPOUNDS AS E3 LIGASE INHIBITORS” (Accutar Biotechnology Inc., priority 2022, published 2024).

This experiment addresses T1, GID4 (Uniprot ID: Q81VV7, residues 124-289) (Homo sapiens, UniProt Q8IVV7).
T1 construct: GID4 (Uniprot ID: Q81VV7, residues 124-289)
T1 sequence (Q8IVV7 124-289): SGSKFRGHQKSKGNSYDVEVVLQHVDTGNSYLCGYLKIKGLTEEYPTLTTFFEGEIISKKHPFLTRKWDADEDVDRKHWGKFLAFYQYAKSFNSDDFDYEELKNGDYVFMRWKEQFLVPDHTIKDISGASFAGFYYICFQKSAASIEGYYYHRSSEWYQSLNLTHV
As to the kind of experiment: GID4 competitive binding assay (AlphaScreen, GID4/degron peptide PGLW). To be noted: 24 nM GID4, 48 nM biotinylated degron peptide PGLW, 4° C., read-out: IC50 (Inhibition of GID4/Degron binding by test compounds). An outline of the steps:
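His-tagged human GID4 (residues 124-289, 24 nM) pre-incubated 2 h at 4 °C with 48 nM biotinylated PGLW peptide and compound in HEPES pH 7.5 buffer, 2% DMSO (final). AlphaScreen streptavidin donor/Ni-NTA acceptor beads added for 1 h; IC50 from nonlinear fit of % inhibition versus DMSO.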
On the technique in general: In Alpha technology, singlet oxygen from a donor bead excites a nearby acceptor bead.
In the case of `Nc1cc(N2CCNC(c3cc(N4CCC(CO)CC4)ccc3Br)C2)nc(N)n1` (stereo not drawn) [Compound 33, (1-(4-bromo-3-(4-(2,6-diaminopyrimidin-4-yl)piperazin-2-yl)phenyl)piperidin-4-yl)methanol], the IC50 was less than 500 nM. `COC(=O)c1ccc(Br)c(C2CN(c3cc(N)nc(N)n3)CCN2)c1` (stereo not drawn) [Compound 38, methyl 4-bromo-3-(4-(2,6-diaminopyrimidin-4-yl)piperazin-2-yl)benzoate]: the IC50 is less than 500 nM.

For the compound `CC(C)c1cc(N2CCNC(c3cc(N4CCNCC4)ccc3Br)C2)nc(N)n1` (stereo not drawn) [Compound 41, 4-(3-(2-bromo-5-(piperazin-1-yl)phenyl)piperazin-1-yl)-6-isopropylpyrimidin-2-amine], the IC50 was less than 500 nM.

For the compound `CC(=O)N1CCN(c2cc(N)nc(NC3CC3)n2)CC1c1ccccc1Br` (stereo not drawn) [Compound 52, 1-(4-(6-amino-2-(cyclopropylamino)pyrimidin-4-yl)-2-(2-bromophenyl)piperazin-1-yl)ethan-1-one], the IC50 is 500 to 5000 nM. For the compound `Nc1nc(NC2CC2)nc(N2CCN(CCO)C(c3ccccc3Br)C2)n1` (stereo not drawn) [Compound 53, 2-(4-(4-amino-6-(cyclopropylamino)-1,3,5-triazin-2-yl)-2-(2-bromophenyl)piperazin-1-yl)ethan-1-ol], the IC50 is more than 5000 nM. For `Nc1cc(N2CCNC(c3ccccc3C(F)(F)F)C2)nc(N)n1` (stereo not drawn) [Compound 54, 6-(3-(2-(trifluoromethyl)phenyl)piperazin-1-yl)pyrimidine-2,4-diamine] the value was less than 500 nM; for `Nc1nc(N2CCNC(c3cnc4ccccn34)C2)c2[nH]ccc2n1` (stereo not drawn) [Compound 55, 4-(3-(imidazo[1,2-a]pyridin-3-yl)piperazin-1-yl)-5H-pyrrolo[3,2-d]pyrimidin-2-amine], 500 to 5000 nM; for `c1ccn2c(C3CCCN(c4ncnc5c4CCCN5)C3)cnc2c1` (stereo not drawn) [Compound 58, 4-(3-(imidazo[1,2-a]pyridin-3-yl)piperidin-1-yl)-5,6,7,8-tetrahydropyrido[2,3-d]pyrimidine], 500 to 5000 nM.

Take `Nc1nc(NC2CC2)nc(N2CCOC(c3ccccc3Br)C2)n1` (stereo not drawn) [Compound 61, 6-(2-(2-bromophenyl)morpholino)-N2-cyclopropyl-1,3,5-triazine-2,4-diamine]: the IC50 was in the range of 500 to 5000 nM.

As to `c1ccn2c(C3CCCN(c4ccnc5[nH]cnc45)C3)cnc2c1` (stereo not drawn) [Compound 62, 7-(3-(imidazo[1,2-a]pyridin-3-yl)piperidin-1-yl)-3H-imidazo[4,5-b]pyridine], the IC50 was less than 500 nM. For `Nc1nc(NC2CC2)c(Cl)c(N2CCNC(c3ccccc3Br)C2)n1` (stereo not drawn) [Compound 63, 6-(3-(2-bromophenyl)piperazin-1-yl)-5-chloro-N4-cyclopropylpyrimidine-2,4-diamine], the IC50 lay within 500 to 5000 nM. For `Nc1nc(N)c(Cl)c(N2CCNC(c3ccccc3Br)C2)n1` (stereo not drawn) [Compound 68, 6-(3-(2-bromophenyl)piperazin-1-yl)-5-chloropyrimidine-2,4-diamine] the value was more than 5000 nM; for `CN1CCN(c2cc(N)nc(NC3CC3)n2)CC1c1ccccc1Br` (stereo not drawn) [Compound 71, 6-(3-(2-bromophenyl)-4-methylpiperazin-1-yl)-N2-cyclopropylpyrimidine-2,4-diamine], less than 500 nM. For `CC(C)c1nc(N)cc(N2CCN(C)C(c3ccccc3Br)C2)n1` (stereo not drawn) [Compound 74, 6-(3-(2-bromophenyl)-4-methylpiperazin-1-yl)-2-isopropylpyrimidin-4-amine] the value was 500 to 5000 nM; for `Brc1ccccc1C1CN(c2cc(NC3CC3)ncn2)CCN1` (stereo not drawn) [Compound 79, 6-(3-(2-bromophenyl)piperazin-1-yl)-N-cyclopropylpyrimidin-4-amine], more than 5000 nM. Take `CNc1cc(N2CCCC(c3csc4ccccc34)C2)nc(N)n1` (stereo not drawn) [Compound 82, 6-(3-(benzo[b]thiophen-3-yl)piperidin-1-yl)-N4-methylpyrimidine-2,4-diamine]: the IC50 was 500 to 5000 nM.

Turning to `CNc1nc(N)cc(N2CCCC(c3ccccc3Br)C2)n1` (stereo not drawn) [Compound 85, 6-(3-(2-bromophenyl)piperidin-1-yl)-N^2-methylpyrimidine-2,4-diamine], the IC50 lay within 500 to 5000 nM.

Consider `Nc1nc2c(c(N3CCCC(c4cnc5ccccn45)C3)n1)CCCN2` (stereo not drawn) [Compound 88, 4-(3-(imidazo[1,2-a]pyridin-3-yl)piperidin-1-yl)-5,6,7,8-tetrahydropyrido[2,3-d]pyrimidin-2-amine], for which the IC50 is more than 5000 nM. With `Nc1cc(N2CCCC(n3ncc4ccccc43)C2)nc(N)n1` (stereo not drawn) [Compound 89, 6-(3-(1H-indazol-1-yl)piperidin-1-yl)pyrimidine-2,4-diamine], the IC50 was more than 5000 nM. With `c1ccn2c(C3CCCN(c4ncnc5[nH]ccc45)C3)cnc2c1` (stereo not drawn) [Compound 90, 4-(3-(imidazo[1,2-a]pyridin-3-yl)piperidin-1-yl)-7H-pyrrolo[2,3-d]pyrimidine], the IC50 was more than 5000 nM.

As to `c1ccn2c(C3CCCN(c4ccnc5[nH]ccc45)C3)cnc2c1` (stereo not drawn) [Compound 91, 3-(1-(1H-pyrrolo[2,3-b]pyridin-4-yl)piperidin-3-yl)imidazo[1,2-a]pyridine], the IC50 is less than 500 nM. The same measure for `CNc1cc(N2CCNC(c3cnc4ccccn34)C2)nc(N)n1` (stereo not drawn) [Compound 92, 6-(3-(imidazo[1,2-a]pyridin-3-yl)piperazin-1-yl)-N4-methylpyrimidine-2,4-diamine]: 500 to 5000 nM; for `CNc1cc(N2CCCC(n3nnc4ccccc43)C2)nc(N)n1` (stereo not drawn) [Compound 93, 6-(3-(1H-benzo[d][1,2,3]triazol-1-yl)piperidin-1-yl)-N4-methylpyrimidine-2,4-diamine]: more than 5000 nM; for `CNc1cc(N2CCCC(c3ncc4ccccn34)C2)nc(N)n1` (stereo not drawn) [Compound 94, 6-(3-(imidazo[1,5-a]pyridin-3-yl)piperidin-1-yl)-N4-methylpyrimidine-2,4-diamine]: more than 5000 nM. As for `CN1CCN(c2cc(NC3CC3)nc(N)n2)CC1c1ccccc1Br` (stereo not drawn) [Compound 101, 6-(3-(2-bromophenyl)-4-methylpiperazin-1-yl)-N4-cyclopropylpyrimidine-2,4-diamine], the IC50 is less than 500 nM.

Turning to `CNc1cc(N2CCNC(c3csc4ccccc34)C2)nc(N)n1` (stereo not drawn) [Compound 102, 6-(3-(benzo[b]thiophen-3-yl)piperazin-1-yl)-N4-methylpyrimidine-2,4-diamine], the IC50 was 500 to 5000 nM. As for `Nc1nc(NC2CC2)cc(N2CCCC(c3cnc4ccccn34)C2)n1` (stereo not drawn) [Compound 107, N4-cyclopropyl-6-(3-(imidazo[1,2-a]pyridin-3-yl)piperidin-1-yl)pyrimidine-2,4-diamine], the IC50 was 500 to 5000 nM. For `CNc1cc(N2CCN(C)C(c3ccccc3)C2)nc(N)n1` (stereo not drawn) [Compound 110, N4-methyl-6-(4-methyl-3-phenylpiperazin-1-yl)pyrimidine-2,4-diamine] the value was 500 to 5000 nM; for `CC(C)c1cc(N2CCCC(c3cnc4ccccn34)C2)nc(NCCO)n1` (stereo not drawn) [Compound 127, 2-((4-(3-(imidazo[1,2-a]pyridin-3-yl)piperidin-1-yl)-6-isopropylpyrimidin-2-yl)amino)ethan-1-ol], more than 5000 nM.

Take `CNc1nc(C(C)C)cc(N2CCCC(c3cnc4ccccn34)C2)n1` (stereo not drawn) [Compound 134, 4-(3-(imidazo[1,2-a]pyridin-3-yl)piperidin-1-yl)-6-isopropyl-N-methylpyrimidin-2-amine]: the IC50 is less than 500 nM. With `CN(C)C(=O)CCC1CCCN(c2nc(N)nc3c2CCCN3)C1` (stereo not drawn) [Compound 135, 3-(1-(2-amino-5,6,7,8-tetrahydropyrido[2,3-d]pyrimidin-4-yl)piperidin-3-yl)-N,N-dimethylpropanamide], the IC50 lay within 500 to 5000 nM. As for `CC(C)c1cc(N2CCNC(c3c[nH]c4ccccc34)C2)nc(N)n1` (stereo not drawn) [Compound 138, 4-(3-(1H-indol-3-yl)piperazin-1-yl)-6-isopropylpyrimidin-2-amine], the IC50 is 500 to 5000 nM.

In the case of `Nc1nc(C2CC2)cc(N2CCCC(c3cnc4ccccn34)C2)n1` (stereo not drawn) [Compound 139, 4-cyclopropyl-6-(3-(imidazo[1,2-a]pyridin-3-yl)piperidin-1-yl)pyrimidin-2-amine], the IC50 is less than 500 nM. Turning to `CNC(=O)CCC1CCCN(c2nc(N)nc3c2CCCN3)C1` (stereo not drawn) [Compound 140, 3-(1-(2-amino-5,6,7,8-tetrahydropyrido[2,3-d]pyrimidin-4-yl)piperidin-3-yl)-N-methylpropanamide], the IC50 lay in the range of 500 to 5000 nM.

`Cc1cc(N2CCCC(c3cnc4ccccn34)C2)nc(N)n1` (stereo not drawn) [Compound 147, 4-(3-(imidazo[1,2-a]pyridin-3-yl)piperidin-1-yl)-6-methylpyrimidin-2-amine]: the IC50 lay within 500 to 5000 nM. Consider `CC(C)c1cc(N2CCNC(c3csc4ccccc34)C2)nc(N)n1` (stereo not drawn) [Compound 162, 4-(3-(benzo[b]thiophen-3-yl)piperazin-1-yl)-6-isopropylpyrimidin-2-amine], for which the IC50 was 500 to 5000 nM. In the case of `CC(C)c1cc(N2CCNC(c3cc(O)ccc3Br)C2)nc(N)n1` (stereo not drawn) [Compound 163, 3-(4-(2-amino-6-isopropylpyrimidin-4-yl)piperazin-2-yl)-4-bromophenol], the IC50 is less than 500 nM. For `CC(C)c1cc(N2CCNC(c3ccc(O)cc3Br)C2)nc(N)n1` (stereo not drawn) [Compound 164, 4-(4-(2-amino-6-isopropylpyrimidin-4-yl)piperazin-2-yl)-3-bromophenol], the IC50 is less than 500 nM. The same measure for `CC(C)c1cc(N2CCNC(c3ccccc3)C2)nc(N)n1` (stereo not drawn) [Compound 165, 4-isopropyl-6-(3-phenylpiperazin-1-yl)pyrimidin-2-amine]: more than 5000 nM.
